Drawing on BindingDB's records for doi:10.1021/ml4000595 (Temple University, 2013), this text covers IC50 for eight compounds.

Each structure is given as a SMILES string.

For series [1], the target named is T1, Cytochrome P450 11B2, mitochondrial (Homo sapiens, UniProt P19099).
T1 sequence (P19099 whole entry): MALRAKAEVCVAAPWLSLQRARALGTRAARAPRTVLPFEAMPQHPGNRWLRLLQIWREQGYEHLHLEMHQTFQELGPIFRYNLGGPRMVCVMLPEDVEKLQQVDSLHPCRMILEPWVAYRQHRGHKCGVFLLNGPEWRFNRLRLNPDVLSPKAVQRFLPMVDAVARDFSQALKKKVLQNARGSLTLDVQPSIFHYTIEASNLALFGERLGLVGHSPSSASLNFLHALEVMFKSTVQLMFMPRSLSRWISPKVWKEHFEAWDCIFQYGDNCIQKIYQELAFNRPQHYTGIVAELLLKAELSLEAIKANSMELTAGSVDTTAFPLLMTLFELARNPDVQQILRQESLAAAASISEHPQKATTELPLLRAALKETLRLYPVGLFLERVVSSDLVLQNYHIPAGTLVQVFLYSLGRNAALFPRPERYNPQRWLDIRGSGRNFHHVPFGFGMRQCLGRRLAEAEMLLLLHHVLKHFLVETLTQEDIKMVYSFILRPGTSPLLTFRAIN
Nature of the series: Inhibition of human CYP11B2 expressed in hamster V79MZ cells using [1,2-3H]11-deoxycorticosterone as substrate preincubated for 60 mins prior to substrate addition measured after 50 mins by HPLC analysis.

Series [2] deals with T2, Cytochrome P450 11B1, mitochondrial (Homo sapiens, UniProt P15538).
T2 sequence (P15538 whole entry): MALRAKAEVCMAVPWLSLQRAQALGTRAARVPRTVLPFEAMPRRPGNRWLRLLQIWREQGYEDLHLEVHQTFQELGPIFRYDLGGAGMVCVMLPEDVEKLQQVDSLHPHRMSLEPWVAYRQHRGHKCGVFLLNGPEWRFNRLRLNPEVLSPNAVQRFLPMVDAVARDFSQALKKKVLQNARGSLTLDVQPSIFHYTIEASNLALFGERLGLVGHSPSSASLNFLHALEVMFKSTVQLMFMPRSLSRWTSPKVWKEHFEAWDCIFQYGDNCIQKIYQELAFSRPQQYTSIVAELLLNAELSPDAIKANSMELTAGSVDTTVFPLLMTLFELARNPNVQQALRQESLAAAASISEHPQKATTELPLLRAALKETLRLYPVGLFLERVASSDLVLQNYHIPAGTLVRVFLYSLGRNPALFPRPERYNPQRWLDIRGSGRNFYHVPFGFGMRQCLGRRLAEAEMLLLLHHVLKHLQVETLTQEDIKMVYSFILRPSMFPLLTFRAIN
The experiment in a line: Inhibition of human CYP11B1 expressed in hamster V79MZ cells using [1,2-3H]11-deoxycorticosterone as substrate preincubated for 60 mins prior to substrate addition measured after 25 mins by HPLC analysis.

With `c1ccc2c(-c3ccc(Cn4ccnc4)cn3)cccc2c1`, the IC50 (commonly the concentration at which inhibition is half-maximal) in series [1] turned out to be 2.08 µM; in series [2], 0.042 µM.

As to `c1csc(-c2ncccc2Cn2ccnc2)c1`, the concentration for half-maximal inhibition (IC50) is 0.251 µM in series [1] and 0.016 µM in series [2].

On to `c1ccc2c(-c3ccc(Cn4ccnc4)cn3)csc2c1`, for which the IC50 in series [1] is 1.16 µM; in series [2], 0.04 µM.

Regarding `Oc1ccc(-c2ccc(Cn3ccnc3)cn2)cc1F`, the IC50 in series [1] is 0.237 µM; in series [2] it was 0.017 µM.

On to `Brc1ncccc1Cn1ccnc1`, for which the figures for the IC50 in series [1] and in series [2] were 0.911 µM and 0.061 µM, respectively.

As for `Nc1ccccc1-c1ccc(Cn2ccnc2)cn1`, the concentration for half-maximal inhibition (IC50) in series [1] is 2.11 µM; in series [2] it was 0.101 µM.

In the case of `Nc1cccc(-c2ccc(Cn3ccnc3)cn2)c1`, the IC50 was 3.41 µM in series [1] and 0.11 µM in series [2].

`Nc1ccc(-c2ccc(Cn3ccnc3)cn2)cc1`: the IC50 is 0.528 µM in series [1] and 0.106 µM in series [2].
